Literature values, collected in PubChem BioAssay AID1259409 (Chemical Carcinogenesis Research Information System (CCRIS), 2018).

System: rodent chemically induced tumor inhibition, incidence and multiplicity
Experiment: CCRIS tumor inhibitor studies
Details: Route [Inhibitor]: ORAL, Promoter: NONE USED

CC1=C(/C=C/C(C)=C/C=C/C(C)=C/C(=O)NCCO)C(C)(C)CCC1
tumour outcome (control, treated, inhibition, significance) (Carcinogen: N-(4-(5-NITRO-2-FURYL)-2-THIAZOLYL)FORMAMIDE, 24554-26-5, Dose [Inhibitor]: 686 MG/KG/D IN DIET FOR 39 WK STARTING 1 WK POST CARCINOGEN TREATMENT (STUDY DURATION: 50 WK), Species: RAT, Strain/Sex: F344/FEMALE, Target Tissue: Type of Lesion: URINARY BLADDER: CARCINOMA, Dose [Carcinogen]: 2 G/KG/D IN DIET FOR 10 WK): 105/200 (53%), 49/100 (49%), 8%, p<0.5657 | tumour outcome (control, treated, inhibition, significance) (Carcinogen: N-(4-(5-NITRO-2-FURYL)-2-THIAZOLYL)FORMAMIDE, 24554-26-5, Dose [Inhibitor]: 686 MG/KG/D IN DIET FOR 39 WK STARTING 1 WK POST CARCINOGEN TREATMENT (STUDY DURATION: 50 WK), Species: RAT, Strain/Sex: F344/FEMALE, Target Tissue: Type of Lesion: URINARY BLADDER: PAPILLOMA, Dose [Carcinogen]: 2 G/KG/D IN DIET FOR 10 WK): 15/200 (7.5%), 17/100 (17%), -127%, p<0.012 | tumour outcome (control, treated, inhibition, significance) (Carcinogen: N-BUTYL-N-(4-HYDROXYBUTYL)NITROSAMINE, 3817-11-6, Dose [Inhibitor]: 0.5 MMOL/KG DIET DAILY FOR 16 WK STARTING 7 D AFTER FINAL CARCINOGEN DOSE (STUDY DURATION: 6 MO), Species: MOUSE, Strain/Sex: B6D2F1/MALE, Target Tissue: Type of Lesion: URINARY BLADDER: CARCINOMA, Dose [Carcinogen]: 5 OR 10 MG 2/WK FOR 9 WK): 36/97 (37%), 22/75 (29%), 22%, not significant | tumour outcome (control, treated, inhibition, significance) (Carcinogen: N-BUTYL-N-(4-HYDROXYBUTYL)NITROSAMINE, 3817-11-6, Dose [Inhibitor]: 1 MMOL/KG DIET DAILY FOR 16 WK STARTING 7 D AFTER FINAL CARCINOGEN DOSE (STUDY DURATION: 6 MO), Species: MOUSE, Strain/Sex: B6D2F1/MALE, Target Tissue: Type of Lesion: URINARY BLADDER: CARCINOMA, Dose [Carcinogen]: 5 OR 10 MG 2/WK FOR 9 WK): 36/97 (37%), 17/77 (22%), 41%, p<0.025 | tumour outcome (control, treated, inhibition, significance) (Carcinogen: N-BUTYL-N-(4-HYDROXYBUTYL)NITROSAMINE, 3817-11-6, Dose [Inhibitor]: 1 MMOL/KG DIET DAILY FOR 108 D STARTING ONE WK AFTER THE FINAL CARCINOGEN DOSE (STUDY DURATION: 171 D), Species: MOUSE, Strain/Sex: BDF1/MALE, Target Tissue: Type of Lesion: URINARY BLADDER: TRANSITIONAL CELL CARCINOMA, Dose [Carcinogen]: 5 MG 2/WK FOR 9 WK): 31/55 (56%), 19/55 (35%), 38%, p<0.05 | tumour outcome (control, treated, inhibition, significance) (Carcinogen: N-BUTYL-N-(4-HYDROXYBUTYL)NITROSAMINE, 3817-11-6, Dose [Inhibitor]: 1 MMOL/KG DIET DAILY FOR 159 D STARTING ONE WK AFTER THE FINAL CARCINOGEN DOSE (STUDY DURATION: 216 D), Species: MOUSE, Strain/Sex: BDF1/MALE, Target Tissue: Type of Lesion: URINARY BLADDER: TRANSITIONAL CELL CARCINOMA, Dose [Carcinogen]: 7.5 MG 1/WK FOR 8 WK): 29/98 (30%), 14/95 (15%), 50%, p<0.05 | tumour outcome (control, treated, inhibition, significance) (Carcinogen: N-BUTYL-N-(4-HYDROXYBUTYL)NITROSAMINE, 3817-11-6, Dose [Inhibitor]: 1.0 MMOL/KG/D IN DIET FOR 108 D STARTING 1 WK POST CARCINOGEN TREATMENT (STUDY DURATION: 171 D), Species: MOUSE, Strain/Sex: DBF1/MALE, Target Tissue: Type of Lesion: URINARY BLADDER: TRANSITIONAL CELL CARCINOMA, Dose [Carcinogen]: 5 MG 2/WK FOR 9 WK): 31/55 (56%), 19/55 (35%), 38%, p<0.05 | tumour outcome (control, treated, inhibition, significance) (Carcinogen: N-BUTYL-N-(4-HYDROXYBUTYL)NITROSAMINE, 3817-11-6, Dose [Inhibitor]: 1.0 MMOL/KG/D IN DIET FOR 159 D STARTING 1 WK POST CARCINOGEN TREATMENT (STUDY DURATION: 216 D), Species: MOUSE, Strain/Sex: DBF1/MALE, Target Tissue: Type of Lesion: URINARY BLADDER: TRANSITIONAL CELL CARCINOMA, Dose [Carcinogen]: 7.5 MG 1/WK FOR 8 WK): 29/98 (30%), 14/95 (15%), 50%, p<0.05 | tumour outcome (control, treated, inhibition, significance) (Carcinogen: N-BUTYL-N-(4-HYDROXYBUTYL)NITROSAMINE, 3817-11-6, Dose [Inhibitor]: 2 MMOL/KG DIET DAILY FOR 17 WK STARTING 7 D AFTER FINAL CARCINOGEN DOSE (STUDY DURATION: 6 MO), Species: RAT, Strain/Sex: F344/MALE, Target Tissue: Type of Lesion: URINARY BLADDER: TRANSITIONAL CELL CARCINOMA, Dose [Carcinogen]: 200 MG 2/WK FOR 8 WK): 55/60 (92%), 19/30 (63%), 32%, p<0.01 | tumour outcome (control, treated, inhibition, significance) (Carcinogen: N-BUTYL-N-(4-HYDROXYBUTYL)NITROSAMINE, 3817-11-6, Dose [Inhibitor]: 2 MMOL/KG DIET DAILY FOR 19 WK STARTING 7 D AFTER FINAL CARCINOGEN DOSE (STUDY DURATION: 6 MO), Species: RAT, Strain/Sex: F344/FEMALE, Target Tissue: Type of Lesion: URINARY BLADDER: TRANSITIONAL CELL CARCINOMA, Dose [Carcinogen]: 150 MG 2/WK FOR 6 WK): 28/80 (35%), 5/40 (12%), 66%, p<0.01 | tumour outcome (control, treated, inhibition, significance) (Carcinogen: N-METHYL-N-NITROSOUREA, 684-93-5, Dose [Inhibitor]: 2 MMOL/KG DIET DAILY STARTING 12 D AFTER CARCINOGEN TREATMENT THROUGH ABOUT 8 MO AFTER CARCINOGEN DOSE (STUDY DURATION:, Species: RAT, Strain/Sex: F344/MALE, Target Tissue: Type of Lesion: COLON: ADENOCARCINOMA, Dose [Carcinogen]: 2.5 MG 1/WK FOR 2 WK): 5/39 (13%), 5/30 (17%), -31%, not significant
